Measurements from patent US12103915B2, “TEAD inhibitors and methods of uses thereof” (Insilico Medicine IP Limited, priority 2022, dated 2024).

Assays:
Type in all cases: binding
[1] = target: TEAD2 (Homo sapiens, UniProt Q15562); assay: Thermal shift assay TEAD2
Description: (§1) Example B: Thermal Shift Assay
(§2) 1) Prepare a fresh dilution of Protein Thermal Shift™ Dye (Applied Biosystems, 1000×) to 8× by […].
(§3) 2) To ensure the same DMSO concentration, the compounds were diluted as follows: Prepare 10 mM stock solution of compounds;
(§4) The final DMSO concentration was 0.1%
(§5) 10 μM: Diluting stock solution to 100 μM by using PBS.
(§6) 1 μM: Diluting stock solution to 1 mM by using DMSO, then dilute to 10 μM by using PBS.
(§7) TEAD1: the stock concentration was 2.9 mg/ml; the final concentration was 0.2 mg/ml. TEAD2: the stock concentration was 1.8 mg/ml; the final concentration was 0.08 mg/ml.
(§8) 4) Place the appropriate reaction plate or tubes on ice, then prepare the protein melt reactions:
(§9) 5) Pipet each reaction up and down 10 times to mix well.
(§10) 6) Seal the plate with MicroAmp™ Optical Adhesive Film, spin it at 1000 rpm for 1 minute.
(§11) 7) Set up and run on the qPCR instrument.
(§12) Using thermal Shift™ Software v1.3 to analysis.

[2] = target: TEAD3 (Homo sapiens, UniProt Q99594); assay: Thermal shift assay TEAD3
Description: as §1, §2, §3, §4, §5, §6
TEAD3: the stock concentration was 2.4 mg/ml; the final concentration was 0.1 mg/ml.
as §8, §9, §10, §11, §12

[3] = target: TEAD1 (Homo sapiens, UniProt P28347); assay: Thermal shift assay TEAD1
Description: as §1, §2, §3, §4, §5, §6, §7, §8, §9, §10, §11, §12

[4] = target: TEAD4 (Homo sapiens, UniProt Q15561); assay: Thermal shift assay TEAD4
Description: as §1, §2, §3, §4, §5, §6
TEAD4: the stock concentration was 2.3 mg/ml; the final concentration was 0.1 mg/ml.
as §8, §9, §10, §11, §12

TEAD2, sequence (Q15562 whole entry, species assumed): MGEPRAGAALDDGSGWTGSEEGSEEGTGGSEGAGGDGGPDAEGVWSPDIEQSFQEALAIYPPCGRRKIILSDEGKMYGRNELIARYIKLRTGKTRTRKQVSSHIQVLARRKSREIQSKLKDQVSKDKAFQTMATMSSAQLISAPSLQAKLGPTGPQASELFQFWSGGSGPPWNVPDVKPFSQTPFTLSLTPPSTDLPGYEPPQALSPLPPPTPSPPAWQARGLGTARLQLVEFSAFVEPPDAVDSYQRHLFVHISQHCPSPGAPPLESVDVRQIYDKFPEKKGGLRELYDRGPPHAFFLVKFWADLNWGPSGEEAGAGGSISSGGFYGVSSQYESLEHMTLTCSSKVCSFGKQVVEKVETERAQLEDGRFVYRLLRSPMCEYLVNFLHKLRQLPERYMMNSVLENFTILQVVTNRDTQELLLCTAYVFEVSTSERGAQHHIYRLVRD
TEAD4, sequence (Q15561 whole entry, species assumed): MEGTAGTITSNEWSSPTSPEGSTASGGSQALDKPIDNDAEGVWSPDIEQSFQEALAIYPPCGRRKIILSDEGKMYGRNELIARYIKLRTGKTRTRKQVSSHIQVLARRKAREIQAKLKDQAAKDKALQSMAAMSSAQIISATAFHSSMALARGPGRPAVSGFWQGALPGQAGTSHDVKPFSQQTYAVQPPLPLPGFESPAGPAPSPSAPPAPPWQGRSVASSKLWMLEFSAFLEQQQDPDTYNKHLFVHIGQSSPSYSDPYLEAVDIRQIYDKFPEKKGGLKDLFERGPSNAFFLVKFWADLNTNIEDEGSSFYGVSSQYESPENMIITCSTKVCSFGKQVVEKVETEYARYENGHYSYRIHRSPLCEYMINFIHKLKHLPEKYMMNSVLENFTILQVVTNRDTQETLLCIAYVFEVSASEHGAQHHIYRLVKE
TEAD3, sequence (Q99594 whole entry, species assumed): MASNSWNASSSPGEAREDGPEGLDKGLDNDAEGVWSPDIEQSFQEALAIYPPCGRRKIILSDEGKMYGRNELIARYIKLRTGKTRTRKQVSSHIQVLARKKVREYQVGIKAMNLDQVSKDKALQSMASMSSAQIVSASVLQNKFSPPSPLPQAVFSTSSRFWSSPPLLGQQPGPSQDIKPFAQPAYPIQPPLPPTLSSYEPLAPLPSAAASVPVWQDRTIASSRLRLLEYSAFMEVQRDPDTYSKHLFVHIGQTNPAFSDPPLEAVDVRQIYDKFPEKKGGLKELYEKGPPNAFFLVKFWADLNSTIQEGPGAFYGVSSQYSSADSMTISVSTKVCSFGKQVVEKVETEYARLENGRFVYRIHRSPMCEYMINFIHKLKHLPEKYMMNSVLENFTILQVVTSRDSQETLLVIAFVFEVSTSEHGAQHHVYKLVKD
TEAD1, sequence (P28347 whole entry, species assumed): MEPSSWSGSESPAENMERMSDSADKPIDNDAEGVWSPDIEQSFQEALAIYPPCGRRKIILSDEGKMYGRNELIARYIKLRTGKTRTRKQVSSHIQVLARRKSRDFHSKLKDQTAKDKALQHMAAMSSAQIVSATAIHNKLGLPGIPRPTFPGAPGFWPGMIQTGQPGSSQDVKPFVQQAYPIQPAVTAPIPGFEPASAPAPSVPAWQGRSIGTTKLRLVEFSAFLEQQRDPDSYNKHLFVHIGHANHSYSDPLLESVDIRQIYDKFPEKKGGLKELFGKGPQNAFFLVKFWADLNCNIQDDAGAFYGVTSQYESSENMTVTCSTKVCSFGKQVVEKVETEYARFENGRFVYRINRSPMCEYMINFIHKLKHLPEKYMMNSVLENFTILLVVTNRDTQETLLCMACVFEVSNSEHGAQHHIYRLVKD

Row | SMILES | TEAD2 ΔTm [1] | TEAD3 ΔTm [2] | TEAD1 ΔTm [3] | TEAD4 ΔTm [4]
1 | Cn1cc2cc(Oc3ccc(C(F)(F)F)cc3)cc([C@@H]3C[C@H]3C(=O)O)c2n1 (single isomer, unassigned) [Example 16a] | 13.7 °C | 2 °C | 11.3 °C | 11.4 °C
2 | Cn1cc2cc(Oc3ccc(C(F)F)cc3)cc([C@@H]3C[C@H]3C(=O)N3CC(O)C3)c2n1 (single isomer, unassigned) [Example 89a] | 3.3 °C | 0.2 °C | 0.0 °C | −0.2 °C
3 | Cn1cc2cc(Oc3ccc(C(F)(F)F)cc3)cc(C3C[C@H]3C(=O)N3CCP(C)(=O)CC3)c2n1 (single isomer, unassigned) [Example 111] | 3.7 °C | 0.7 °C | 3.0 °C | 3.2 °C
4 | Cn1cc2cc(Oc3ccc(C(F)(F)F)cc3)cc(C3C[C@H]3C(=O)N3CCS(=O)(=O)CC3)c2n1 (single isomer, unassigned) [Example 110] | 5.2 °C | 1.0 °C | 4.1 °C | 4.1 °C
5 | Cn1cc2nc(Oc3ccc(C(F)(F)F)cc3)cc([C@@H]3C[C@H]3C(=O)N3C[C@@H]4C[C@H]3CO4)c2n1 (single isomer, unassigned) [Example 120] | 6.5 °C | 1.2 °C | 4.1 °C | 4.5 °C
6 | Cn1cc2cc(Oc3ccc(C(F)(F)F)cc3)cc(C3C[C@H]3C(=O)NC[C@H]3C[C@@H](O)[C@@H](O)C3O)c2n1 (single isomer, unassigned) [Example 107] | 4.9 °C | 1.1 °C | 5.0 °C | 6.1 °C
7 | CO[C@H]1CN(C(=O)[C@@H]2C[C@H]2c2cc(Oc3ccc(C(F)(F)F)cc3)cc3cn(C)nc23)C[C@@H]1O (single isomer, unassigned) [Example 112a] | 9.5 °C | 2.0 °C | 7.2 °C | 8.6 °C
8 | Cn1cc2cc(Oc3ccc(C(F)(F)F)cn3)cc([C@@H]3C[C@H]3C(=O)N3CC(O)C3)c2n1 (single isomer, unassigned) [Example 88a] | 1.5 °C | 0.1 °C | −0.3 °C | 0.1 °C
9 | Cn1cc2cc(Oc3ccc(C(F)(F)F)cc3)cc(C3C[C@H]3C(=O)N3C4COCC3CC(O)C4)c2n1 (single isomer, unassigned) [Example 116b] | 5.3 °C | 2.2 °C | 5.5 °C | 7.1 °C
10 | CNS(=O)(=O)CCc1cc(N(C)c2ccc(C(F)(F)F)cc2)cc2cn(C)nc12 [Example 49] | 2.6 °C | 0.1 °C | 3.2 °C | 5.1 °C
11 | Cn1cc2cc(Oc3ccc(C(F)(F)F)cc3)cc(C3C[C@H]3C(=O)N3C4COCC3CC(O)C4)c2n1 (single isomer, unassigned) [Example 116a] | 6.1 °C | 1.8 °C | 4.6 °C | 6.1 °C
12 | Cn1cc2cc(Oc3cc(F)ccc3C(F)(F)F)cc([C@@H]3C[C@H]3C(=O)N3CC(O)C3)c2n1 (single isomer, unassigned) [Example 133] | 8.5 °C | 0.3 °C | 1.1 °C | 4.9 °C
13 | Cn1cc2nc(Oc3ccc(C(F)(F)F)cc3)nc([C@H]3C[C@@H]3C(=O)N3CC(O)C3)c2n1 (single isomer, unassigned) [Example 109b] | 2.2 °C | 0.9 °C | 1.8 °C | 3.4 °C
14 | O=C(O)[C@@H]1CC1c1cc(Oc2ccc(C(F)(F)F)cc2)cn2ccnc12 (mixture of isomers) [Example 83] | 8.0 °C | 1.4 °C | 2.7 °C | 3.6 °C
15 | Cn1cc2cc(Oc3ccc(C(F)(F)F)cc3)cc([C@H]3C[C@@H]3C(=O)O)c2n1 (single isomer, unassigned) [Example 16b] | 14.9 °C | 15 °C | 12.1 °C | 12.5 °C
16 | Cn1cc2cc(Oc3ccc(F)c(F)c3)cc([C@@H]3C[C@H]3C(=O)N3CC(O)C3)c2n1 (single isomer, unassigned) [Example 90a] | 2.6 °C | 0.2 °C | −0.2 °C | 0.6 °C
17 | Cn1cc2cc(O[C@H]3CC[C@@H](C(F)(F)F)CC3)cc([C@H]3C[C@@H]3C(=O)N3CC(O)C3)c2n1 (single isomer, unassigned) [Example 87b] | 2.6 °C | 0.0 °C | −0.4 °C | 0.3 °C
18 | CNS(=O)(=O)[C@@H]1CC1c1cc(-c2ccc(C(F)(F)F)cc2)cc2cn(C)nc12 (mixture of isomers) [Example 50] | 2.5 °C | 0.7 °C | 4.2 °C | 5.7 °C
19 | Cn1cc2cc(Oc3ccc(C(F)(F)F)cc3)cc(C3C[C@H]3C(=O)N3CC4CC3[C@H](O)[C@H]4O)c2n1 (single isomer, unassigned) [Example 106] | 9.9 °C | 2.2 °C | 6.4 °C | 8.5 °C
20 | Cn1cc2cc(Oc3ccc(C(F)(F)F)cc3)cc(C3C[C@H]3C(=O)N3CC(C(=O)O)C3)c2n1 (single isomer, unassigned) [Example 113] | 5.7 °C | 1.5 °C | 4.1 °C | 4.2 °C
21 | CNC(=O)[C@@H]1CC1c1cc(Oc2ccc(C(F)(F)F)cc2)cn2ccnc12 (mixture of isomers) [Example 84] | 6.5 °C | 1.2 °C | 1.0 °C | 3.1 °C
22 | [2H]C([2H])([2H])n1cc2cc(Oc3ccc(C(F)(F)F)cc3)cc([C@H]3C[C@@H]3C(=O)NC)c2n1 (single isomer, unassigned) [Example 76b] | 15.4 °C | 10.9 °C | 11.5 °C | 12.6 °C
23 | [2H]C([2H])([2H])n1cc2cc(Oc3ccc(C(F)(F)F)cc3)cc([C@@H]3C[C@H]3C(=O)NC)c2n1 (single isomer, unassigned) [Example 76a] | 10.3 °C | 0.6 °C | 5.4 °C | 4.7 °C
24 | Cn1cc2cc(Oc3cc(F)c(F)c(F)c3)cc([C@@H]3C[C@H]3C(=O)N3C[C@@H]4C[C@H]3C[C@@H]4O)c2n1 (single isomer, unassigned) [Example 138] | 6.8 °C | 2.3 °C | 4.2 °C | 6.4 °C
25 | Cn1cc2cc(Oc3ccc(C(F)(F)F)cc3)cc(C3C[C@H]3C(=O)N3CCOC4(COC4)C3)c2n1 (single isomer, unassigned) [Example 114] | 7.1 °C | 1.5 °C | 4.6 °C | 7.1 °C
26 | Cn1cc2nc(Oc3ccc(C(F)(F)F)cc3)cc([C@@H]3C[C@H]3C(=O)N3C4COCC3C4)c2n1 (single isomer, unassigned) [Example 118] | 6.2 °C | 1.6 °C | 4.6 °C | 6.1 °C
27 | Cn1cc2cc(Oc3ccc(C(F)(F)F)cc3)cc([C@@H]3C[C@H]3C(=O)N3CC4CC3CN4)c2n1 (single isomer, unassigned) [Example 122] | 6.5 °C | 1.8 °C | 5.9 °C | 4.9 °C
